Tests used:
M. furfur cells = assay: Non-chelator antifungals with or without light, M. furfur growth (Table 11); format: cell-based, Malassezia furfur; details: for effect of adding light on efficacy: non-chelator antifungals, OD values of Table 11
Method: (§1) M. furfur cells are exposed to other antifungals that are not considered chelators (i.e. selenium sulfide (SeSx), Sulfur, Climbazole, and Terbinafine). After treatment, cells are then exposed to light, or not exposed to light. Both OD are measured to measure growth and PPIX levels are measured.

protoporphyrin IX (PPIX) [1] = assay: Protoporphyrin IX levels in treated M. furfur cells by HPLC; format: cell-based; details: for PPIX levels upon treatment: non-chelator antifungals, Table 11
Excerpt: PPIX absorb light in the 400 nm range, and when light is absorbed, PPIX transitions to an excited triplet state that can react with triplet oxygen to produce singlet oxygen or the excited porphyrin can generate ROS through single electron processes. These reactive species result in a loss of cell viability.
as §1

protoporphyrin IX (PPIX) [2] = assay: as above; format: cell-based
M. furfur CBS 7982 = assay: Fractional Inhibitor Concentration (FIC): antimicrobial plus 409 nm light on M. furfur growth; format: cell-based, Malassezia furfur; details: for growth, OD 600 nm: 27 h growth
Method: Fractional Inhibitor Concentration (FIC) is a conventional methodology for evaluating the interaction of two antimicrobial chemicals. […] In an embodiment of the present invention, FIC is used to determine combinatorial effects of one chemical and exposure to light on Malassezia growth and/or viability in an in vitro system.
• 1. M. furfur CBS 7982 cells are exposed to a varying concentrations of an antimicrobial active (e.g. ZPT, Piroctone Olamine) for a specified amount of time (e.g. 2 min to 3 hours). • 2. After exposure, the antimicrobial is washed away by centrifugation of the cells and a series of washes • 3. Cells are then exposed to light at a wavelength of 409 nm for varying lengths of time • 4. Cells are then allowed to grow up overnight (e.g. 17 h) to determine the impact of the treatment on viability and growth of the organism by measuring OD600 II. Data Analysis: • 1. Inhibition of growth is determined to be where the OD value obtained is <=50% of the untreated control • 2. The lowest concentration value of the antimicrobial agent which inhibits growth is determined • 3. Likewise, the shortest light exposure time is determined that gives growth inhibition • 4. Finally, the combination of the lowest concentration of the antimicrobial and the shortest light exposure time that provides growth inhibition is determined • 5. The FIC value is determined using the calculation below:
[formula] • 6. The combinatorial effect of the antimicrobial and light is classified according to the chart below: […]
(§2) M. furfur is incubated for one hour with varying concentrations of Piroctone Olamine. Cell pellets are collected by centrifugation so that most of the anti-fungal material has been removed. The cell pellet is suspended in PBS and 500 uL samples are distributed to four 12 well plates and treated with light (409 nm) for 1, 10 or 60 minutes or stored in the dark. Samples are then diluted into mDixon, and incubated for 16 h with subsequent growth measured by OD 600 nm.
as §2, with “Hinokitiol.” for “Piroctone Olamine.”, “27” for “16”, “nm. […]” for “nm.”

For `CC(C)(C)C(=O)C(Oc1ccc(Cl)cc1)n1ccnc1` (stereo not shown) [Climbazole], the OD600 (M. furfur cells; 1 ppm, Dark (second part)) was 11.9, the OD600 (M. furfur cells; 1 ppm, Light (second part)) was 10.2 and the “effect of adding light on efficacy” value (M. furfur cells) was “does not increase their efficacy”. For the same molecule, the PPIX (protoporphyrin IX (PPIX) [1]; 1 ppm (Table 11, second part)) was 4.5 ng and the “PPIX levels upon treatment” value (protoporphyrin IX (PPIX) [1]) was “PPIX levels do not change”.
For `CN(C/C=C/C#CC(C)(C)C)Cc1cccc2ccccc12` [Terbinafine], the OD600 (M. furfur cells; 0.5 ppm, Dark (second part)) was 12.5, the OD600 (M. furfur cells; 0.5 ppm, Light (second part)) was 10.6 and the “effect of adding light on efficacy” value (M. furfur cells) was “does not increase their efficacy”. The PPIX (protoporphyrin IX (PPIX) [1]; 0.5 ppm (Table 11, second part)) was 6.7 ng and the “PPIX levels upon treatment” value (protoporphyrin IX (PPIX) [1]) was “PPIX levels do not change”.
For `S1SSSSSSS1` [Sulfur], the OD600 (M. furfur cells; 8 ppm, Dark) was 4.52, the OD600 (M. furfur cells; 8 ppm, Light) was 3.62 and the “effect of adding light on efficacy” value (M. furfur cells) was “does not increase their efficacy”. For the same molecule, the PPIX (protoporphyrin IX (PPIX) [1]; 8 ppm (Table 11)) was 1.6 ng and the “PPIX levels upon treatment” value (protoporphyrin IX (PPIX) [1]) was “PPIX levels do not change”.
`S=[Se]=S` [SeSx, selenium sulfide] gave an OD600 (M. furfur cells; 0.4 ppm, Dark) of 3.31, an OD600 (M. furfur cells; 0.4 ppm, Light) of 2.27 and an OD600 (M. furfur cells; 0.8 ppm, Dark) of 1.51. For the same molecule, the OD600 (M. furfur cells; 0.8 ppm, Light) was 1.44, the “effect of adding light on efficacy” value (M. furfur cells) was “does not increase their efficacy” and the “PPIX levels upon treatment” value (protoporphyrin IX (PPIX) [1]) was “PPIX levels do not change”. The PPIX (protoporphyrin IX (PPIX) [2]; 0.4 ppm (Table 11)) was 2.6 ng and the PPIX (protoporphyrin IX (PPIX) [2]; 0.8 ppm (Table 11)) was 1.2 ng.
For `CC(C)c1cccc(=O)c(O)c1` [Hinokitiol], the “shortest light exposure time when applied in combination to give growth inhibition” value (M. furfur CBS 7982; 409 nm light, with the lowest inhibiting concentration) was 1 min, the “growth, OD 600 nm” value (M. furfur CBS 7982; Hinokitiol 3 ppm 1 h, 409 nm light 0 min) was 8.3 and the “growth, OD 600 nm” value (M. furfur CBS 7982; Hinokitiol 3 ppm 1 h, 409 nm light 1 min) was 7.9. The “growth, OD 600 nm” value (M. furfur CBS 7982; Hinokitiol 3 ppm 1 h, 409 nm light 10 min) was 4.6, the “growth, OD 600 nm” value (M. furfur CBS 7982; Hinokitiol 3 ppm 1 h, 409 nm light 60 min) was 4.5 and the “growth, OD 600 nm” value (M. furfur CBS 7982; Hinokitiol 6 ppm 1 h, 409 nm light 0 min) was 8.5. The “growth, OD 600 nm” value (M. furfur CBS 7982; Hinokitiol 6 ppm 1 h, 409 nm light 1 min) was 1.8, the “growth, OD 600 nm” value (M. furfur CBS 7982; Hinokitiol 6 ppm 1 h, 409 nm light 10 min) was 0.3 and the “growth, OD 600 nm” value (M. furfur CBS 7982; Hinokitiol 6 ppm 1 h, 409 nm light 60 min) was 0.4. The “growth, OD 600 nm” value (M. furfur CBS 7982; Hinokitiol 12 ppm 1 h, 409 nm light 0 min) was 8.6, the “growth, OD 600 nm” value (M. furfur CBS 7982; Hinokitiol 12 ppm 1 h, 409 nm light 1 min) was 2.3 and the “growth, OD 600 nm” value (M. furfur CBS 7982; Hinokitiol 12 ppm 1 h, 409 nm light 10 min) was 0.2. The “growth, OD 600 nm” value (M. furfur CBS 7982; Hinokitiol 12 ppm 1 h, 409 nm light 60 min) was 0.3, the “growth, OD 600 nm” value (M. furfur CBS 7982; Hinokitiol 24 ppm 1 h, 409 nm light 0 min) was 6.1 and the “growth, OD 600 nm” value (M. furfur CBS 7982; Hinokitiol 24 ppm 1 h, 409 nm light 1 min) was 0.6. For the same molecule, the “growth, OD 600 nm” value (M. furfur CBS 7982; Hinokitiol 24 ppm 1 h, 409 nm light 10 min) was 0.2, the “growth, OD 600 nm” value (M. furfur CBS 7982; Hinokitiol 24 ppm 1 h, 409 nm light 60 min) was 0.2 and the “growth, OD 600 nm” value (M. furfur CBS 7982; Hinokitiol 48 ppm 1 h, 409 nm light 0 min) was 5.7. The “growth, OD 600 nm” value (M. furfur CBS 7982; Hinokitiol 48 ppm 1 h, 409 nm light 1 min) was 0.2, the “growth, OD 600 nm” value (M. furfur CBS 7982; Hinokitiol 48 ppm 1 h, 409 nm light 10 min) was 0.1 and the “growth, OD 600 nm” value (M. furfur CBS 7982; Hinokitiol 48 ppm 1 h, 409 nm light 60 min) was 0.1. For the same molecule, the “growth, OD 600 nm” value (M. furfur CBS 7982; Hinokitiol 96 ppm 1 h, 409 nm light 0 min) was 5.9, the “growth, OD 600 nm” value (M. furfur CBS 7982; Hinokitiol 96 ppm 1 h, 409 nm light 1 min) was 0.3 and the “growth, OD 600 nm” value (M. furfur CBS 7982; Hinokitiol 96 ppm 1 h, 409 nm light 10 min) was 0.0. For the same molecule, the “growth, OD 600 nm” value (M. furfur CBS 7982; Hinokitiol 96 ppm 1 h, 409 nm light 60 min) was 0.0, the “lowest concentration to give growth inhibition” value (M. furfur CBS 7982; antimicrobial alone, no light, inhibition = OD <=50% of untreated control) was greater than 96 ppm and the FIC value (M. furfur CBS 7982; antimicrobial plus 409 nm light) was 0.08. For the same molecule, the “Combinatorial Effect” value (M. furfur CBS 7982; antimicrobial plus 409 nm light, classified by FIC value) was “synergistic” and the “lowest concentration when applied in combination with light to give growth inhibition” value (M. furfur CBS 7982; with 409 nm light, inhibition = OD <=50% of untreated control) was 6 ppm.

Source: patent publication US11771765B2, “Light augmented treatment method” (The Procter & Gamble Company, priority 2019, dated 2023)
